Assay results as given in the NIST ThermoML archive (doi:10.1016/j.jct.2007.02.009).
± gives the expanded uncertainty stated by the source.

Experiments:
[1] = Crystal; Adiabatic calorimetry
[2] = Molar enthalpy of transition or fusion; conditions: Crystal; Adiabatic calorimetry

- Triple point temperature [1]: 254.23 ± 0.18 K
- Molar enthalpy of transition or fusion [2]: 2.44 ± 0.0598 kcal/mol
Structure (SMILES): CC(=O)N(C)C [N,N-dimethylethanamide]
